Molecular target: T1, TRIM24-PB binding to endogenous histone H3 in HeLa TRIM24-PB cells (Homo sapiens, UniProt O15164)
T1 construct: The FLAG-TRIM24-PB construct (residues 810–1050) was generated by PCR amplification; expressed in transfected cells
T1 sequence (O15164 810-1050): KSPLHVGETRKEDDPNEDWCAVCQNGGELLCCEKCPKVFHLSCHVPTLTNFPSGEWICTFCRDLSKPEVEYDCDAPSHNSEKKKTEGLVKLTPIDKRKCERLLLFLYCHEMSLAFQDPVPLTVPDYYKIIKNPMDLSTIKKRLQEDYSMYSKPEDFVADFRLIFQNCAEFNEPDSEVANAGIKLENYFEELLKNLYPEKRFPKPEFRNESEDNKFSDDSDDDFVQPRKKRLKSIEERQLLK
Assay: Cellular TRIM24/histone H3 AlphaLISA binding assay
Type: cell-based
Conditions: co-treated with SAHA, 2 h, 6 independent experiments, listed as TRIM24 inhibitor, read-out: Cell EC50 (AlphaLISA)
Description: Hela TRIM24-PB cells were maintained in DMEM medium supplemented with 10 % FBS and 5 µg/mL of Blasticidin. Cells were seeded (10,000/well, 40 µL) to 384-well white culture plates (PerkinElmer, #6007680) using a Multidrop 384 reagent dispenser (Thermo Scientific) and incubated overnight at 37 °C and 5 % CO2. On Day 2, the cells were co-treated with SAHA (10 µM) and test compound and incubated at 37 °C and 5 % CO2 for 2 h. The plates were washed twice with PBS (60 µL at RT) using a Biomek FX liquid handler (Beckman Coulter). […] Plates were read on Envision plate reader (PerkinElmer) using AlphaScreen protocol and all IC50 values (four-parameter logistic curve) were obtained using GraphPad Prism 6 software. […]
All EC50 values were calculated based on these POC values using four-parametric nonlinear regression (i.e., curve fitting) software (either Genedata Screener™ software version 11 or Graphpad Prism 6). For the cell-based AlphaLISA assay, the POC values were calculated using the following wells and process: (1) a “blank subtraction” was performed by subtracting the mean signal of the blank control wells (which contained media but lacked cells) from all of the measured values; (2) these corrected values were then used in the POC formula stated above. […] Average and standard Deviation (SD) values were calculated using the Harmony software (PerkinElmer). […]

EC50: 1300 nM
SMILES: Cc1nc(S(=O)(=O)Nc2cc3c(cc2Oc2cccc(OCC(C)C)c2)n(C)c(=O)n3C)cn1C [IACS-6558, N-{1,3-dimethyl-6-[3-(2-methylpropoxy)phenoxy]-2-oxo-2,3-dihydro-1H-1,3-benzodiazol-5-yl}-1,2-dimethyl-1H-imidazole-4-sulfonamide]

Source: article PMC4578755, “Development of novel cellular histone-binding and chromatin-displacement assays for bromodomain drug discovery” (Epigenetics & Chromatin, 2015)
